Test results as given in PMC8626775, “Anti-schistosomal activities of quinoxaline-containing compounds: From hit identification to lead optimisation” (European Journal of Medicinal Chemistry, 2021).
Entries after “also recorded” stand apart in the source; their conditions may differ.

Tests used:
S. mansoni adult worms = experiment: In vitro laid egg (IVLE) production by S. mansoni adult worm pairs, 72 h; type: cell-based, Schistosoma mansoni; conditions: 0.0024–10 μM
Method: For the evaluation of anti-schistosomal activity on the adult stage of the parasite, 7-wk old worms were transferred into 48 well tissue culture plates (1–3 worm pairs/well, in duplicate). […] DMSO (0.5%) and praziquantel (10 μM in 0.5% DMSO) were also included as negative and positive control treatments. Treated adult worms were incubated for 72 h in a humidified environment containing 5% CO2 at 37 °C. Parasite motility after compound treatment was assessed by a digital image processing-based system (WormassayGP2), modified after Wormassay. Following compound-parasite co-incubation, eggs were collected, fixed in formalin (10% v/v formaldehyde) and enumerated aiming to collect further information on any compound-induced effects on parasite fecundity and IVLE production.

HepG2 cells = experiment: HepG2 MTT cytotoxicity assay
Method in brief: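 HepG2 cells seeded at 2 × 10^4 cells/well, cultured at 37 °C in 5% CO2. Viability by MTT, formazan absorbance at 570 nm. The cytotoxicity value served for computing compound selectivity index.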

[1] = system: Juvenile S. mansoni worms; experiment: S. mansoni juvenile worm screen (motility score, propidium iodide uptake), 72 h; type: cell-based, Schistosoma mansoni; conditions: for EC50: 3 week juvenile S. mansoni; for PI pos: juvenile worms, Fig. S4
Text: Mice (Mus musculus HsdOLa:TO - Tuck Ordinary; Envigo, UK) were used for the mammalian-specific propagation of the S. mansoni life cycle. Experimental animals were infected with 4000 or 180 S. mansoni cercariae/mouse and perfused three- or seven-weeks post-infection to obtain S. mansoni juvenile or adult worms, respectively. Preparation steps following perfusion have been described previously. Briefly, the parasite material was washed three times with pre-warmed adult worm media (DMEM (Gibco, Paisley, UK) supplemented with 10% (v/v) Fetal Calf Serum (FCS, Gibco, Paisley, UK), 1% (v/v) L-glutamine (Gibco, Paisley, UK) and an antibiotic mixture (150 Units/ml penicillin and 150 μg/ml streptomycin; Gibco, UK)) to remove residual host contamination and incubated in a humidified environment containing 5% CO2 at 37 °C for at least 1 h.
Juvenile worms were distributed in a 96-well tissue culture plate (n = 20–25 individuals/well) containing 200 μl/well. Compounds were added to each treatment well at a concentration range of 10–0.156 μM. Negative (1.25% DMSO) and positive (15 μM PZQ and 15 μM AUR in 1.25% DMSO) controls were also included in each drug screen. Treated juvenile worms were incubated for 72 h in a humidified environment containing 5% CO2 at 37 °C. Compound-induced phenotype and motility effects were quantified using an adapted version of the WHO-TDR scoring system (in summary: 0 = dead, 1 = movement of the suckers only and slight contraction of the body, 2 = movement at the anterior and posterior regions only, 3 = full body movement but sluggish and 4 = normal movement). Additionally, differential uptake of propidium iodide (PI, P1304MP, Sigma-Aldrich, UK) was used to quantify worm viability as previously described. In brief, after 15 min incubation with 2 μg/ml PI, the parasite cultures were imaged under both bright-field and fluorescent settings (PI detection, 562 and 624 excitation and emission wavelengths, respectively) using an ImageXpressXL high content imager (Molecular Devices, UK). Enumeration of PI positive and negative juvenile worms was manually performed across all parasites within the well and the percentage of PI positive parasite was calculated per well.

in vitro = conditions: human, TK6 lymphoblastoid cells
Method: (§1) The in vitro micronucleus (MN) assay was employed for the assessment of chromosome damage. Human, p53 competent, lymphoblastoid TK6 cells (Cat. No. 95111735) were used in this study and obtained from the European Collection of Authenticated Cell Cultures (ECACC)). RPMI 1640 (Gibco, Paisley, UK) culture media supplemented with 1% penicillin/streptomycin (100 U/ml Penicillin and 100 μg/ml Streptomycin), 10% heat inactivated horse serum (Gibco, Paisley, UK), 1% L-glutamine (Gibco, Paisley, UK) and hygromycine-B was used for TK6 cell culture. Cells were incubated at 37 °C in a humidified atmosphere of 5% (v/v) CO2.

TK6 cells = experiment: Genotoxicity assessment in TK6 cells (micronucleus, ɣH2AX, p53, cell cycle)
Method: as §1

SMILES: O=[N+]([O-])c1ccc2nc(Nc3cc(C(F)(F)F)ccc3F)c(Nc3cc(C(F)(F)F)ccc3F)nc2c1 [Compound 33, N2, N3-bis(2-fluoro-5-(trifluoromethyl)phenyl)-6-nitroquinoxaline-2,3-diamine]
- Effect on IVLE production compared with PZQ (S. mansoni adult worms): more potent than PZQ
- Toxicity on HepG2 in words (HepG2 cells; 24 h): low toxicity
- Selectivity Index (SI) Adult worms (HepG2 cells; HepG2 CC50 versus adult worm EC50): 17.87
- Selectivity Index (SI) Somula (HepG2 cells; HepG2 CC50 versus schistosomula EC50): 0.66

SMILES: O=[N+]([O-])c1ccc2nc(Nc3ccc(Cl)c(Cl)c3)c(Nc3ccc(Cl)c(Cl)c3)nc2c1 [Compound 22, N^2, N^3-bis(3,4-dichlorophenyl)-6-nitroquinoxaline-2,3-diamine]
- EC50 ([1]; 72 h): 201 nM
- Concentration down to which parasite death of juvenile worms was induced ([1]; 72 h, supported by propidium iodide staining): 1.25 µM
- EC50 ([1]; Schistosoma mansoni, 72 h): 200 nM
- PI pos ([1]; 0.156 µM): 0%
- PI pos ([1]; 0.312 µM): 10%
- PI pos ([1]; 0.625 µM): 20%
- PI pos ([1]; 1.25 µM): 100%
- PI pos ([1]; 2.50 µM): 100%
- PI pos ([1]; 5 µM): 100%
- PI pos ([1]; 10 µM): 100%
- CC50 at 24 h (in vitro): 9360 nM
- Number of micronuclei (MNi) compared to DMSO treated cells (TK6 cells): did not change significantly
- Cell-cycle analysis (TK6 cells; 2 and 4 μM): G2/M phase arrest
- Genotoxicity (TK6 cells; TK6 cells, 0.5, 2 and 4 μM): non-genotoxic; also recorded: does not induce genotoxicity
